Data taken from US8663616B2, “Enzymatic peracid generation for use in oral care products” (E I du Pont de Nemours and Company, priority 2010, dated 2014).

Experiments:
[1] = Peracetic acid vs hydrogen peroxide bleaching of coffee/tea stained bovine enamel (whiteness index); conditions: for ΔWI: 0 to 61 min; for Whiteness Index 0 min: before exposure
Source text: This example describes the use of peracetic acid to achieve a bleaching effect on model stained enamel surfaces. Bovine enamel incisors were obtained from SE Dental (Baton Rouge, La.). Teeth were sectioned and cut into enamel slabs approximately 7 mm on each side using a DREMEL® rotary saw (Robert Bosch Power Tool Corporation; Chicago, Ill.) with a diamond blade. The enamel slabs were cleaned and lightly polished to remove surface debris. The enamel was pretreated with a mixture of coffee and tea for 1-5 days in order to stain to a color similar to human stained teeth.
Each enamel block was hydrated in water for at least 1 hr prior to use. Color measurements for the substrate were obtained prior to exposure to test solutions. Solutions of peracetic acid were prepared from a 32% stock in 500 mM sodium phosphate buffer, pH 7.2. A solution of 2.5% H2O2 was also prepared in the same buffer. Multiple enamel blocks were exposed to each solution for 1 min followed by additional exposures of 5 min, 10 min, 15 min and 30 min. For each treatment, a fresh solution of peracetic acid and hydrogen peroxide was prepared from the stock solutions. After each treatment the enamel blocks were rinsed with water and measured with a Konica-Minolta 2600d spectrophotometer.
(§1) Whiteness index (WI) is defined by the International Commission on Illumination (CIE) and described in ASTM method E313-05 and calculated for D65/10 incident light as: WI=Y+800*(0.3138−x)+1700*(0.3310−y) Where Y, x, and y are the luminance factor and the chromaticity coordinates respectively of the enamel substrate.

[2] = One-step bleaching of stained bovine enamel with perhydrolase system (Example 12)
Source text: as §1
(§2) The purpose of this example is to show the tooth bleaching effect of enzymatic generated peracetic acid in a one-step application and compare to the performance achieved with chemically derived peracetic acid. Two methods were developed to use a perhydrolytic enzyme (CE-7 perhydrolase) system to achieve the target level of tooth bleaching. The first method (referred to herein as the “one-step approach”) comprises combining different amounts of at least one CE-7 perhydrolase with triacetin (an example of a suitable ester substrate) and hydrogen peroxide to generate peracetic acid using model stained enamel substrates. Bovine enamel incisors were prepared as indicated in Example 1. Stained bovine enamel blocks were hydrated in water at least 1 hr prior to use to stabilize the color of the substrate. The color for each enamel block was measured after hydration prior to the start of the experiment. Three enamel samples were treated for each solution type. The solutions used were a buffer only control, 2.5% H2O2, 1% peracetic acid, a perhydrolase composition including 10 μM EZ-1 (C277S; SEQ ID NO: 424), 100 mM triacetin and 250 mM H2O2 and a no enzyme control of 100 mM triacetin and 250 mM H2O2. All solutions were prepared in 500 mM sodium phosphate buffer, pH 7.2. The high buffer strength was necessary to maintain the 1% peracetic acid solution at neutral pH. All solutions were freshly prepared for each treatment point. The enzyme-triacetin-H2O2 combination and triacetin-H2O2 combination was mixed immediately before enamel exposure. After each treatment step, each enamel block was rinsed with water and a color measurement was obtained. A total treatment time of 61 min was used with durations of exposure of 1 min, 5 min, 10 min, 15 min and 30 min. The concentration of peracetic acid in solution after the 1 min, 10 min and 30 min treatments was evaluated by colorimetric detection of ABTS oxidation.

[3] = Peracetic acid in treatment solution by ABTS absorbance (Example 12); assay type: biochemical; conditions: 1:100 dilution into ABTS reagent
Source text: as §2
(§3) Determination of the peracetic acid (PAA) concentration in the reaction mixtures by a colorimetric method was performed according to the method described by Dinu et. al. (supra). A reagent solution of 1 mM 2,2′-azino-bis(3-ethylbenzothiazoline)-6-sulfonate (ABTS), 50 μM potassium iodide in 125 mM potassium citrate buffer at pH 5.0 was prepared. […] The solution was analyzed for absorbance at 405 nm using a Microplate reader. A comparison of relative amounts of peracetic acid in solution was determined by comparing absorbance values directly.

[4] = One-step bleaching of stained bovine enamel with targeted perhydrolase (Example 13); conditions: 0.1% PAA
Protocol: as §1
(§4) Bovine enamel incisors were prepared as indicated in Example 1. Stained bovine enamel blocks were hydrated in water at least 1 h prior to use to stabilize the color of the substrate. The color for each enamel block was measured after hydration prior to the start of the experiment. Two enamel samples were treated for each solution type. The solutions used were a buffer only control, 0.1% Peracetic Acid, a perhydrolase composition including 0.52 μM EZ-7 (C277S with enamel binding domain; SEQ ID NO: 429), 100 mM triacetin and 32.6 mM H2O2. All solutions were prepared in 100 mM sodium phosphate buffer, pH 7.2. All solutions were freshly prepared for each treatment point. The enzyme-triacetin-H2O2 combination was mixed immediately before enamel exposure. After each treatment step, each enamel block was rinsed with water and a color measurement was obtained. A treatment time of 30 min was repeated 4 times for each set of enamel substrates. The concentration of peracetic acid in solution after a 30 min treatment was evaluated by colorimetric detection of ABTS oxidation.

[5] = Peracetic acid in treatment solution by ABTS (Example 13); assay type: biochemical; conditions: after 30 min treatment
Protocol: as §3, §4

CC(=O)OO [PAA, peracetic acid]
ΔWI ([1]; Table 1, 2.5% H2O2 or 0.5% PAA): 90.8
Whiteness Index 1 min ([1]; Table 1, 2.5% H2O2 or 0.5% PAA, cumulative exposure 1 min): −111.6
Whiteness Index 6 min ([1]; Table 1, 2.5% H2O2 or 0.5% PAA, cumulative exposure 6 min): −80.7
Whiteness Index 16 min ([1]; Table 1, 2.5% H2O2 or 0.5% PAA, cumulative exposure 16 min): −56.5
Whiteness Index 31 min ([1]; Table 1, 2.5% H2O2 or 0.5% PAA, cumulative exposure 31 min): −44.5
Whiteness Index 61 min ([1]; Table 1, 2.5% H2O2 or 0.5% PAA, cumulative exposure 61 min): −38.3
Whiteness Index 0 min ([1]; Table 1, 2.5% H2O2 or 0.5% PAA, 500 mM sodium phosphate pH 7.2): −129.1
Whiteness Index 1 min ([1]; Table 2, 0.05% PAA): −97.1
Whiteness Index 6 min ([1]; Table 2, 0.05% PAA): −93.1
Whiteness Index 16 min ([1]; Table 2, 0.05% PAA): −70.1
Whiteness Index 31 min ([1]; Table 2, 0.05% PAA): −59.0
Whiteness Index 61 min ([1]; Table 2, 0.05% PAA): −34.7
ΔWI ([1]; Table 2, 0.05% PAA): 68.7
Whiteness Index 0 min ([1]; Table 2, 0.05% PAA): −103.4
Whiteness Index 1 min ([1]; Table 2, 0.2% PAA): −85.5
Whiteness Index 6 min ([1]; Table 2, 0.2% PAA): −67.0
Whiteness Index 16 min ([1]; Table 2, 0.2% PAA): −47.5
Whiteness Index 31 min ([1]; Table 2, 0.2% PAA): −31.7
Whiteness Index 61 min ([1]; Table 2, 0.2% PAA): −16.2
ΔWI ([1]; Table 2, 0.2% PAA): 74.4
Whiteness Index 0 min ([1]; Table 2, 0.2% PAA): −90.6
Whiteness Index 1 min ([1]; Table 2, 0.5% PAA): −86.6
Whiteness Index 6 min ([1]; Table 2, 0.5% PAA): −64.1
Whiteness Index 16 min ([1]; Table 2, 0.5% PAA): −46.4
Whiteness Index 31 min ([1]; Table 2, 0.5% PAA): −32.7
Whiteness Index 61 min ([1]; Table 2, 0.5% PAA): −24.7
ΔWI ([1]; Table 2, 0.5% PAA): 72.8
Whiteness Index 0 min ([1]; Table 2, 0.5% PAA): −97.5
Whiteness Index 1 min ([1]; Table 2, 1% PAA): −89.3
Whiteness Index 16 min ([1]; Table 2, 1% PAA): −36.0
Whiteness Index 31 min ([1]; Table 2, 1% PAA): −20.6
Whiteness Index 61 min ([1]; Table 2, 1% PAA): −5.1
ΔWI ([1]; Table 2, 1% PAA): 97.7
Whiteness Index 0 min ([1]; Table 2, 1% PAA): −102.8
bleaching of stained enamel (in words) ([1]; compared to buffer and hydrogen peroxide controls): effective bleaching agent
Whiteness Index 0 min ([2]; before treatment, 2.5% H2O2, 100 mM triacetin/250 mM H2O2, 1% PAA, 10 μM EZ-1/100 mM triacetin/250 mM H2O2, pH 7.2): −145.7
ΔWI ([2]; one-step, 0 to 61 min): 86.3
Whiteness Index 1 min ([2]; one-step, cumulative treatment 1 min): −119.6
Whiteness Index 6 min ([2]; one-step, cumulative treatment 6 min): −73.4
Whiteness Index 16 min ([2]; one-step, cumulative treatment 16 min): −62.9
Whiteness Index 31 min ([2]; one-step, cumulative treatment 31 min): −59.0
Whiteness Index 61 min ([2]; one-step, cumulative treatment 61 min): −59.4
Absorbance 405 nm, 1 min ([3]; peracetic acid at end of 1 min treatment): 2.579
Absorbance 405 nm, 10 min ([3]; peracetic acid at end of 10 min treatment): 1.863
Absorbance 405 nm, 30 min ([3]; peracetic acid at end of 30 min treatment): 2.874
Whiteness Index 30 min [4]: −101.9
Whiteness Index 60 min [4]: −91.9
Whiteness Index 90 min [4]: −80.2
Whiteness Index 120 min [4]: −70.8
ΔWI ([4]; 0 to 120 min): 55.0
Whiteness Index 0 min ([4]; before treatment, 100 mM sodium phosphate pH 7.2, average of two substrates): −125.8
PAA (ppm) [5]: 920 ppm
Absorbance 405 nm Tooth2 ([5]; 1:10 dilution into ABTS reagent): 1.043
Absorbance 405 nm Tooth1 ([5]; 1:10 dilution into ABTS reagent, 0.1% PAA or 0.52 μM EZ-7/100 mM triacetin/32.6 mM H2O2): 1.103
